Values after ≈ are worked out from the molar mass of the structure shown. Each block holds one compound with its values, some of them ahead of it.
Tests used:
Experiment in all cases: ≥ marks a high value that may be exact or a test limit, other limits are often not marked, values filed in µg/mL are converted to µM
[1] = tested on: Enterococcus faecalis CECT 481
[2] = tested on: Staphylococcus aureus CECT 435
[3] = tested on: Streptococcus agalactiae CECT 183T
[4] = tested on: Staphylococcus aureus MR
[5] = tested on: Pseudomonas aeruginosa NBRC 13275
[6] = tested on: Escherichia coli DH5alpha
[7] = tested on: Staphylococcus aureus NBRC 13276
[8] = tested on: Candida albicans NBRC 1385
[9] = tested on: Cutibacterium acnes JCM 6473
[10] = tested on: Streptococcus mutans JCM 5705
[11] = tested on: Porphyromonas gingivalis ATCC 33277
[12] = tested on: Staphylococcus epidermidis ATCC 12228
[13] = tested on: Listeria monocytogenes CGMCC 1.1075
[14] = tested on: Pseudomonas aeruginosa ATCC 27853
[15] = tested on: Escherichia coli 078
[16] = tested on: Escherichia coli K88
[17] = tested on: Enterococcus faecalis ATCC 29212
[18] = tested on: Bacillus subtilis CMCC 63501
[19] = tested on: Staphylococcus aureus ATCC 43300
[20] = tested on: Escherichia coli UB1005
[21] = tested on: Staphylococcus aureus ATCC 25923
[22] = tested on: Acinetobacter baumannii
[23] = tested on: Escherichia coli K99
[24] = tested on: Bacillus cereus CGMCC 1.932
[25] = tested on: Salmonella enterica subsp. enterica serovar Typhimurium ATCC 14028
[26] = tested on: Salmonella enterica subsp. enterica serovar Pullorum ATCC 7913
[27] = tested on: Salmonella typhimurium ATCC 7731
[28] = tested on: Pseudomonas aeruginosa PAO1
[29] = tested on: Enterococcus faecalis ATCC 2912
[30] = tested on: Staphylococcus aureus ATCC 6538
[31] = tested on: Escherichia coli ATCC 25922
[32] = tested on: Pseudomonas aeruginosa ATCC 15442
[33] = tested on: Candida albicans ATCC 10231
[34] = tested on: Staphylococcus hominis ATCC 27844
[35] = tested on: Enterococcus faecalis NCTC 12697
[36] = tested on: Klebsiella pneumoniae ATCC 43816
[37] = tested on: Escherichia coli NCTC 10418
[38] = tested on: Staphylococcus aureus NCTC 12493
[39] = tested on: Candida albicans NCTC 1467
[40] = tested on: Staphylococcus aureus NCTC 10788
[41] = tested on: Escherichia coli BL21AI
[42] = tested on: Micrococcus luteus DSM 1790

- MIC [5]: ≥ 200 µM
- MIC [6]: ≥ 200 µM
- MIC [7]: ≥ 400 µM
SMILES: CC(=O)N[C@@H](CCCCN)C(=O)N[C@@H](Cc1ccccc1)C(=O)N[C@@H](CC(C)C)C(=O)N[C@@H](Cc1cnc[nH]1)C(=O)N[C@@H](CO)C(=O)N[C@@H](C)C(=O)N[C@@H](CCCCN)C(=O)N[C@@H](CCCCN)C(=O)N[C@@H](Cc1ccccc1)C(=O)NCC(=O)N[C@@H](CCCCN)C(=O)N[C@@H](C)C(=O)N[C@@H](Cc1ccccc1)C(=O)N[C@H](C(N)=O)C(C)C [KFLHSAKKFGKAFV]

- MIC [8]: ≥ 1020 µM
- MIC [9]: ≥ 1020 µM
- MIC [10]: ≥ 1020 µM
- MIC [11]: ≥ 1020 µM
SMILES: CC[C@H](C)[C@H](NC(=O)[C@H](CCCN=C(N)N)NC(=O)CNC(=O)[C@H](Cc1ccc(O)cc1)NC(=O)[C@H](CCC(N)=O)NC(=O)[C@H](CC(N)=O)NC(=O)[C@@H](N)CCCCN)C(=O)N[C@@H](CCCN=C(N)N)C(=O)N[C@H](C(=O)N[C@@H](CC(C)C)C(=O)N[C@@H](CCC(N)=O)C(=O)N[C@@H](CCCN=C(N)N)C(=O)N[C@@H](Cc1ccccc1)C(=O)N[C@@H](CC(N)=O)C(=O)N[C@@H](CCC(N)=O)C(=O)N[C@@H](CCCN=C(N)N)C(=O)O)C(C)C [KNQYGRIRVLQRFNQR]

- MIC [29]: 8.3 µM (≈ 12.3 µg/mL)
- MIC [30]: > 40 µM
- MIC [31]: 2.1 µM (≈ 3.11 µg/mL)
- MIC [32]: 2.1 µM (≈ 3.11 µg/mL)
- MIC [33]: 13.5 µM (≈ 20 µg/mL)
- MIC [34]: 8.3 µM (≈ 12.3 µg/mL)
SMILES: CSCC[C@H](NC(=O)[C@H](CCCN=C(N)N)NC(=O)[C@H](CO)NC(=O)CNC(=O)[C@H](CCCCN)NC(=O)[C@@H](N)CCCN=C(N)N)C(=O)NCC(=O)N[C@@H](CCCCN)C(=O)N[C@@H](CCCCN)C(=O)N[C@@H](CS)C(=O)N[C@@H](CCC(=O)O)C(=O)N[C@@H](CS)C(=O)N1CCC[C@H]1C(=O)O [RKGSRMGKKCECP]

Further lines, the compound ahead of its results:

SMILES: CC[C@H](C)[C@H](NC(=O)[C@H](CC(C)C)NC(=O)[C@@H](NC(=O)[C@@H](NC(=O)[C@@H]1CCCN1C(=O)[C@H](CS)NC(=O)[C@H](CO)NC(=O)CNC(=O)[C@@H]1CCCN1C(=O)[C@H](CCCCN)NC(=O)[C@@H](NC(=O)[C@H](CO)NC(=O)[C@@H](NC(=O)[C@@H]1CCCN1C(=O)CNC(=O)[C@H](CCCCN)NC(=O)[C@@H](NC(=O)[C@@H]1CCCN1C(=O)[C@H](CCC(=O)O)NC(=O)[C@H](CCC(N)=O)NC(=O)[C@H](C)NC(=O)[C@H](CCCCN)NC(=O)[C@@H](N)C(C)C)C(C)C)C(C)C)[C@@H](C)O)[C@@H](C)CC)[C@@H](C)CC)C(=O)N[C@@H](CCCN=C(N)N)C(=O)N[C@@H](CS)C(=O)N[C@@H](C)C(=O)O [VKAQEPVKGPVSTKPGSCPIILIRCA]
- MIC [1]: ≥ 47.5 µM
- MIC [2]: ≥ 47.5 µM
- MIC [3]: ≥ 95.1 µM
- MIC [4]: ≥ 47.5 µM

SMILES: NCC(=O)N[C@@H](CCCN=C(N)N)C(=O)N[C@@H](Cc1c[nH]c2ccccc12)C(=O)N[C@@H](CCCN=C(N)N)C(=O)N[C@@H](Cc1c[nH]c2ccccc12)C(=O)N[C@@H](Cc1c[nH]c2ccccc12)C(=O)N[C@@H](Cc1c[nH]c2ccccc12)C(=O)N[C@@H](CCCN=C(N)N)C(=O)N[C@@H](Cc1c[nH]c2ccccc12)C(=O)N[C@@H](CCCN=C(N)N)C(=O)N[C@@H](Cc1c[nH]c2ccccc12)C(N)=O [GRWRWWWRWRW]
- MIC [12]: 4 µM (≈ 7.26 µg/mL)
- MIC [13]: 2 µM (≈ 3.63 µg/mL)
- MIC [14]: 8 µM (≈ 14.5 µg/mL)
- MIC [15]: 4 µM (≈ 7.26 µg/mL)
- MIC [16]: 2 µM (≈ 3.63 µg/mL)
- MIC [17]: 2 µM (≈ 3.63 µg/mL)
- MIC [18]: 8 µM (≈ 14.5 µg/mL)
- MIC [19]: 2 µM (≈ 3.63 µg/mL)
- MIC [20]: 4 µM (≈ 7.26 µg/mL)
- MIC [21]: 2 µM (≈ 3.63 µg/mL)
- MIC [22]: 2 µM (≈ 3.63 µg/mL)
- MIC [23]: 2 µM (≈ 3.63 µg/mL)
- MIC [24]: 8 µM (≈ 14.5 µg/mL)
- MIC [25]: 2 µM (≈ 3.63 µg/mL)
- MIC [26]: 2 µM (≈ 3.63 µg/mL)
- MIC [27]: 16 µM (≈ 29.1 µg/mL)
- MIC [28]: 4 µM (≈ 7.26 µg/mL)

SMILES: CSCC[C@H](NC(=O)[C@H](CCC(=O)O)NC(=O)[C@H](CCCCN)NC(=O)[C@H](CC(C)C)NC(=O)[C@H](CCCCN)NC(=O)CNC(=O)[C@H](Cc1c[nH]c2ccccc12)NC(=O)[C@H](CC(C)C)NC(=O)[C@@H](N)CO)C(=O)N[C@@H](C)C(=O)N[C@@H](C)C(=O)N[C@@H](C)C(=O)N[C@@H](C)C(=O)NCC(=O)N[C@@H](CCCCN)C(=O)N[C@@H](C)C(=O)N[C@@H](C)C(=O)N[C@@H](CC(C)C)C(=O)N[C@@H](CC(N)=O)C(=O)N[C@@H](C)C(=O)N[C@H](C(=O)N[C@@H](CC(N)=O)C(=O)NCC(=O)N[C@@H](CC(C)C)C(=O)N[C@H](C(=O)N[C@@H](CC(N)=O)C(=O)N[C@@H](CCC(N)=O)C(N)=O)C(C)C)C(C)C [SLWGKLKEMAAAAGKAALNAVNGLVNQ]
- MIC [35]: ≥ 32 µM
- MIC [14]: 64 µM (≈ 174 µg/mL)
- MIC [36]: ≥ 32 µM
- MIC [37]: 8 µM (≈ 21.8 µg/mL)
- MIC [38]: ≥ 32 µM
- MIC [39]: ≥ 64 µM
- MIC [40]: 8 µM (≈ 21.8 µg/mL)

SMILES: CC[C@H](C)[C@H](NC(=O)[C@H](CCCN=C(N)N)NC(=O)[C@H](CCCN=C(N)N)NC(=O)[C@@H]1CCCN1C(=O)[C@@H]1CCCN1C(=O)[C@@H]1CCCN1C(=O)[C@@H]1CCCN1C(=O)[C@H](CCCN=C(N)N)NC(=O)[C@@H]1CCCN1C(=O)[C@H](CC(C)C)NC(=O)[C@H](Cc1ccc(O)cc1)NC(=O)[C@@H]1CCCN1C(=O)[C@@H]1CCCN1C(=O)[C@H](CCCCN)NC(=O)[C@H](CC(=O)O)NC(=O)[C@@H](N)C(C)C)C(=O)N[C@@H](Cc1ccc(O)cc1)C(=O)N[C@@H](CC(N)=O)C(=O)O [VDKPPYLPRPPPPRRIYN]
- MIC [41]: ≥ 57.5 µM
- MIC [42]: 28.7 µM (≈ 62.5 µg/mL)

— DBAASP
